In US11596639B2, “Substituted indole Mcl-1 inhibitors” (Vanderbilt University, priority 2016, dated 2023):

Experiments:
[1] = tested on: H929 human cancer cell lines; assay: Cellular viability / proliferation (Cell TiterGlo, 72 h); assay type: cell-based; conditions: Homo sapiens, NCI-H929, 72 h, read-out: GI50 on cellular proliferation of H929 human cancer cell lines, H929 cells, 72 h, Cell TiterGlo, 10% FBS
How it was run: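 Cells were seeded at 1,000 cells/well in medium with 10% FBS and dosed 24 h later with a 2-fold serial dilution of compound (top concentration 50 μM, final DMSO <1%).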

Mcl-1 = Mcl-1 (Homo sapiens (Human), UniProt Q07820); assay: TR-FRET binding assay, FITC-Bak peptide and MBP-tagged Mcl-1; conditions: read-out: Ki for Inhibition of Mcl-1 by TR-FRET assay
Sequence of Mcl-1 (Q07820 172-327): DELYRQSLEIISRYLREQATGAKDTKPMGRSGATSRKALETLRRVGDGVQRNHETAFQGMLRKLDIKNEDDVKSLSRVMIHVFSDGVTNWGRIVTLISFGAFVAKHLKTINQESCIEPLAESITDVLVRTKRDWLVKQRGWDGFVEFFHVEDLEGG
Description: Compounds are diluted in DMSO in a 16-point, semilog serial dilution scheme. […] The plate was mixed and incubated for 3 hours at room temperature. […] TR-FRET signal is plotted and IC50 and Ki values are calculated in the same manner as the fluorescence polarization anisotropy based competition assays.

Row | Compound | GI50 [1] | Ki (Mcl-1)
1 | Cc1cc(N2C[C@@H](C)n3c(c(CCCOc4cc(C)c(Cl)c(C)c4)c4ccc(Cl)c(-c5c(C)nn(C)c5C)c43)C2=O)c2c(c1)cc(C(=O)O)n2Cc1cc(N2CCOCC2)ccn1 [Example 500, (R)-7-(7-chloro-10-(3-(4-chloro-3,5-dimethylphenoxy)propyl)-4-methyl-1-oxo-6-(1,3,5-trimethyl-1H-pyrazol-4-yl)-3,4-dihydropyrazino[1,2-a]indol-2(1H)-yl)-5-methyl-1-((4-morpholinopyridin-2-yl)methyl)-1H-indole-2-carboxylic acid] | 330 nM | < 0.2 nM
2 | Cc1cc(OCCCc2c3n(c4c(-c5c(C)nn(C)c5C)c(Cl)ccc24)[C@H](C)CN(c2cn(C)c4ccc(-n5cncn5)cc24)C3=O)cc(C)c1Cl [Example 681, (R)-7-Chloro-10-(3-(4-chloro-3,5-dimethylphenoxy)propyl)-4-methyl-2-(1-methyl-5-(1H-1,2,4-triazol-1-yl)-1H-indol-3-yl)-6-(1,3,5-trimethyl-1H-pyrazol-4-yl)-3,4-dihydropyrazino[1,2-a]indol-1(2H)-one] | 940 nM | 5.5 nM
3 | Cc1cc(N2C[C@@H](C)n3c(c(CCCOc4cc(C)c(Cl)c(C)c4)c4ccc(Cl)c(-c5c(C)nn(C)c5C)c43)C2=O)c2c(c1)cc(C(=O)O)n2Cc1cc(N2CCCCC2)ccn1 [Example 504, (R)-7-(7-Chloro-10-(3-(4-chloro-3,5-dimethylphenoxy)propyl)-4-methyl-1-oxo-6-(1,3,5-trimethyl-1H-pyrazol-4-yl)-3,4-dihydropyrazino[1,2-a]indol-2(1H)-yl)-5-methyl-1-((4-(piperidin-1-yl)pyridin-2-yl)methyl)-1H-indole-2-carboxylic acid] | 1000 nM | 0.23 nM
4 | Cc1cc(OCCCc2c3n(c4c(-c5c(C)ncnc5C)c(Cl)ccc24)[C@H](C)CN(c2cn(C)c4ccc(C(=O)O)nc24)C3=O)cc(C)c1Cl [Example 651, (R)-3-(7-chloro-10-(3-(4-chloro-3,5-dimethylphenoxy)propyl)-6-(4,6-dimethylpyrimidin-5-yl)-4-methyl-1-oxo-3,4-dihydropyrazino[1,2-a]indol-2(1H)-yl)-1-methyl-1H-pyrrolo[3,2-b]pyridine-5-carboxylic acid] | 290 nM | < 0.2 nM
5 | Cc1cc(C)nc(Cn2c(C(=O)O)cc3cc(C)cc(N4C[C@@H](C)n5c(c(CCCOc6cc(C)c(Cl)c(C)c6)c6ccc(Cl)c(-c7c(C)nn(C)c7C)c65)C4=O)c32)c1 [Example 599, (R)-7-(7-chloro-10-(3-(4-chloro-3,5-dimethylphenoxy)propyl)-4-methyl-1-oxo-6-(1,3,5-trimethyl-1H-pyrazol-4-yl)-3,4-dihydropyrazino[1,2-a]indol-2(1H)-yl)-1-((4,6-dimethylpyridin-2-yl)methyl)-5-methyl-1H-indole-2-carboxylic acid] | < 200 nM | < 0.2 nM
6 | Cc1ccnc(Cn2c(C(=O)O)cc3cc(C)cc(N4C[C@@H](C)n5c(c(CCCOc6cc(C)c(Cl)c(C)c6)c6ccc(Cl)c(-c7c(C)ncnc7C)c65)C4=O)c32)c1 [Example 577, (R)-7-(7-chloro-10-(3-(4-chloro-3,5-dimethylphenoxy)propyl)-6-(4,6-dimethylpyrimidin-5-yl)-4-methyl-1-oxo-3,4-dihydropyrazino[1,2-a]indol-2(1H)-yl)-5-methyl-1-((4-methylpyridin-2-yl)methyl)-1H-indole-2-carboxylic acid] | 230 nM | < 0.2 nM
7 | Cc1cc(OCCCc2c3n(c4c(-c5c(C)nn(C)c5C)c(Cl)ccc24)[C@H](C)CN(c2cn(CCN4CCN(C)CC4)c4ccc(-c5ncccn5)cc24)C3=O)cc(C)c1Cl [Example 568, (R)-7-Chloro-10-(3-(4-chloro-3,5-dimethylphenoxy)propyl)-4-methyl-2-(1-(2-(4-methylpiperazin-1-yl)ethyl)-5-(pyrimidin-2-yl)-1H-indol-3-yl)-6-(1,3,5-trimethyl-1H-pyrazol-4-yl)-3,4-dihydropyrazino[1,2-a]indol-1(2H)-one] | 280 nM | 1.8 nM
8 | Cc1cc(OCCCc2c3n(c4c(-c5c(C)nn(C)c5C)c(Cl)ccc24)[C@H](C)CN(c2cccc4c(C(=O)O)ccnc24)C3=O)cc(C)c1Cl [Example 661, (R)-8-(7-chloro-10-(3-(4-chloro-3,5-dimethylphenoxy)propyl)-4-methyl-1-oxo-6-(1,3,5-trimethyl-1H-pyrazol-4-yl)-3,4-dihydropyrazino[1,2-a]indol-2(1H)-yl)quinoline-4-carboxylic acid] | 2400 nM | 0.23 nM
9 | COCCn1cc(C(=O)O)c2c(OC)ccc(N3C[C@@H](C)n4c(c(CCCOc5cc(C)c(Cl)c(C)c5)c5ccc(Cl)c(-c6c(C)nn(C)c6C)c54)C3=O)c21 [Example 625, (R)-7-(7-chloro-10-(3-(4-chloro-3,5-dimethylphenoxy)propyl)-4-methyl-1-oxo-6-(1,3,5-trimethyl-1H-pyrazol-4-yl)-3,4-dihydropyrazino[1,2-a]indol-2(1H)-yl)-4-methoxy-1-(2-methoxyethyl)-1H-indole-3-carboxylic acid] | 420 nM | 0.22 nM
10 | Cc1cc(OCCCc2c3n(c4c(-c5c(C)nn(C)c5C)c(Cl)ccc24)[C@H](C)CN(c2cc(NCCN4CCCC4)cc4c(C(=O)O)cn(C)c24)C3=O)cc(C)c1Cl [Example 486, (R)-7-(7-Chloro-10-(3-(4-chloro-3,5-dimethylphenoxy)propyl)-4-methyl-1-oxo-6-(1,3,5-trimethyl-1H-pyrazol-4-yl)-3,4-dihydropyrazino[1,2-a]indol-2(1H)-yl)-1-methyl-5-((2-(pyrrolidin-1-yl)ethyl)amino)-1H-indole-3-carboxylic acid] | 2900 nM | 1.4 nM
11 | Cc1cc(OCCCc2c3n(c4c(-c5c(C)nn(C)c5C)c(Cl)ccc24)[C@H](C)CN(c2c(C)ccc4cc(C(=O)O)n(C)c24)C3=O)cc(C)c1Cl [Example 726, (R)-7-(7-Chloro-10-(3-(4-chloro-3,5-dimethylphenoxy)propyl)-4-methyl-1-oxo-6-(1,3,5-trimethyl-1H-pyrazol-4-yl)-3,4-dihydropyrazino[1,2-a]indol-2(1H)-yl)-1,6-dimethyl-1H-indole-2-carboxylic acid] | 260 nM | < 0.2 nM
12 | Cc1cc(OCCCc2c3n(c4c(-c5c(C)nn(C)c5C)c(Cl)ccc24)[C@H](C)CN(c2cc(NCc4ccccn4)cc4c(C(=O)O)cn(C)c24)C3=O)cc(C)c1Cl [Example 523, (R)-7-(7-Chloro-10-(3-(4-chloro-3,5-dimethylphenoxy)propyl)-4-methyl-1-oxo-6-(1,3,5-trimethyl-1H-pyrazol-4-yl)-3,4-dihydropyrazino[1,2-a]indol-2(1H)-yl)-1-methyl-5-((pyridin-2-ylmethyl)amino)-1H-indole-3-carboxylic acid] | 890 nM | 0.5 nM
13 | Cc1cc(OCCCc2c3n(c4c(-c5c(C)nn(C)c5C)c(Cl)ccc24)[C@H](C)CN(c2cc(OCc4ccccn4)cc4cc(C(=O)O)n(C)c24)C3=O)cc(C)c1Cl [Example 481, (R)-7-(7-Chloro-10-(3-(4-chloro-3,5-dimethylphenoxy)propyl)-4-methyl-1-oxo-6-(1,3,5-trimethyl-1H-pyrazol-4-yl)-3,4-dihydropyrazino[1,2-a]indol-2(1H)-yl)-1-methyl-5-(pyridin-2-ylmethoxy)-1H-indole-2-carboxylic acid] | 240 nM | < 0.2 nM
